{"source": "patent US20080146556A1", "about": "“Method of radio-sensitizing tumors using a radio-sensitizing agent” (Cephalon, Inc., priority 2006, published 2008)", "key": {"[1]": {"molecular_target": "recombinant human PARP (Homo sapiens, UniProt P09874)", "sequence (P09874 whole entry)": "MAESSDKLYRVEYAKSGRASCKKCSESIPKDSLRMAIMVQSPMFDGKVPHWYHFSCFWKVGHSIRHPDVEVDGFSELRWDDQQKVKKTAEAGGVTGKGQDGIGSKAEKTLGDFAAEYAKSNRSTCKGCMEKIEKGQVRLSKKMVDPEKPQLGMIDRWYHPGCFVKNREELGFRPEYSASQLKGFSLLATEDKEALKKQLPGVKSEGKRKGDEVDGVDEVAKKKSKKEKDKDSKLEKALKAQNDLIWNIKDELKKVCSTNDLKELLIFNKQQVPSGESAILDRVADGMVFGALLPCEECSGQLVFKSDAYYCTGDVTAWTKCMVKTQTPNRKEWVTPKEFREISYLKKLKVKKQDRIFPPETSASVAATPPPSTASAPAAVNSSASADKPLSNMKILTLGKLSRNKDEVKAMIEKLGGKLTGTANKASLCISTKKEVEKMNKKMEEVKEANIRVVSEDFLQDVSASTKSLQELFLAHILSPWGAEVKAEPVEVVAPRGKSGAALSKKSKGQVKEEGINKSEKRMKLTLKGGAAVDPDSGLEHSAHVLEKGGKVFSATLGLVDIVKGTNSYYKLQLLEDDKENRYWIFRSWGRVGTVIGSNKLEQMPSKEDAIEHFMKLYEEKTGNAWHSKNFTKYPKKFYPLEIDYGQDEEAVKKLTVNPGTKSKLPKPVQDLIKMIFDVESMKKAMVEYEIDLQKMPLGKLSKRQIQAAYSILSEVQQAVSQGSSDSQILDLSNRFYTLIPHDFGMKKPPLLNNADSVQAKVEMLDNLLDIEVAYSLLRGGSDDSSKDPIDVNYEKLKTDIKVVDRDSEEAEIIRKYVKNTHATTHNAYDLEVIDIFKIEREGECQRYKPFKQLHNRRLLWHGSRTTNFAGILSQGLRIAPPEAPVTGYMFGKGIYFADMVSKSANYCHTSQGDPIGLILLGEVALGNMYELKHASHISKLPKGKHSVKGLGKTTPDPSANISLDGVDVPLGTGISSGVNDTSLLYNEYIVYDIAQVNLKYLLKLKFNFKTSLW", "assay": "Measurement of PARP enzymatic activity ([32P]NAD+ transfer to protein acceptor)", "assay_type": "biochemical", "conditions": "100 μM NAD+", "protocol": "PARP activity was monitored by transfer of radiolabeled ADP-ribose units from [^32P]NAD^+ to a protein acceptor such as histone or PARP itself. The assay mixtures contained 100 mM Tris (pH 8.0), 2 mM DTT, 10 mM MgCl2, 20 ug/ml DNA (nicked by sonication), […] histone H1, 5 ng recombinant human PARP, and inhibitor or DMSO (<2.5% (v/v)) in a final volume of 100 uL. The reactions were initiated by the addition of 100 μM NAD^+ supplemented with 2 uCi [^32P]NAD^+/mL and maintained at room temperature for 12 minutes. Assays were terminated by the addition of […] and the radiolabeled precipitate was collected on a 96-well filter plate (Millipore, MADP NOB 50), washed with 25% TCA. The amount of acid-insoluble radioactivity, corresponding to polyADP-ribosylated protein, was quantitated in a Wallac MicroBeta scintillation counter.\nSingle-point inhibition data were calculated by comparing PARP, VEGFR2, or MLK3 activity in the presence of inhibitor to activity in the presence of DMSO only. Inhibition curves for compounds were generated by plotting percent inhibition versus log10 of the concentration of compound. IC50 values were calculated by nonlinear regression using the sigmoidal dose-response (variable slope) equation in GraphPad Prism as follows:\ny=bottom+(top−bottom)/(1+10^(log IC^50^−x)*Hillslope)\nwhere y is the % activity at a given concentration of compound, x is the logarithm of the concentration of compound, bottom is the % inhibition at the lowest compound concentration tested, and top is the % inhibition at the highest compound concentration examined. The values for bottom and top were fixed at 0 and 100, respectively. IC50 values are reported as the average of at least three separate determinations.\nWhere no IC50 value is represented, data has yet to be determined."}, "[2]": {"assay": "Plasma levels of Example 6 at Cmax after s.c. dosing of Example 7 in the radio-sensitization studies", "assay_type": "in vivo, nude mice", "conditions": "athymic NCR NUM nude, mouse, sc"}, "[3]": {"tested_on": "U87MG human glioblastoma xenografts", "assay": "Initial radio-sensitizing study, non-optimized dosing schedule (7.5 Gy x 3 days, s.c.)", "assay_type": "in vivo, nude mice"}, "[4]": {"tested_on": "U87MG human glioblastoma xenografts", "assay_type": "in vivo"}, "[5]": {"tested_on": "bone marrow and intestinal mucosa", "assay": "Bone marrow and jejunal crypt assays for radiation-induced normal tissue toxicity", "assay_type": "in vivo", "conditions": "Example 7 30 and 100 mg/kg dose equivalents of Example 6 sc plus 2 Gy radiation x 5 days", "protocol": "To evaluate therapeutic gain, Example 7 (30 and 100 mg/kg dose equivalents of Example 6 sc) plus 2 Gy radiation×5 days was evaluated in bone marrow and jejunal crypt assays to determine if Example 7 potentiated radiation-induced normal tissue (NT) toxicity."}, "[6]": {"tested_on": "U87MG human glioblastoma xenografts", "assay": "Preliminary radio-sensitizing study of orally administered Example 7", "assay_type": "in vivo, nude mice"}, "[7]": {"conditions": "Example 7 30 mg/kg s.c. qd x 21 d plus RT 2 Gy x 5 days"}}, "note": "Read-outs that look alike come from different tables or passages of the source.", "data": [{"compound": "COc1cccc2[nH]c3c4c(c5c(c3c12)C(=O)NC5=O)CCC4", "note": "[Example 6, 7-Methoxy-1,2,3,11-tetrahydro-5,11-diaza-benzo[a]trindene-4,6-dione]", "values": [{"measurement": "IC50", "setting": "[1]", "value": "< 100", "unit": "nM"}, {"measurement": "Cmax", "setting": "[2]; 30 mg/kg, Example 7 30 mg/kg s.c., fractionated RT study, read-out: Plasma levels of Example 6 at Cmax associated with radio-sensitization efficacy", "value": 5.5, "unit": "µM"}, {"measurement": "Cmax", "setting": "[2]; 100 mg/kg, Example 7 100 mg/kg s.c. dose, fractionated RT study, read-out: Plasma levels at Cmax", "value": 21, "unit": "µM"}, {"measurement": "Cmax", "setting": "[2]; 100 mg/kg, at 100 mg/kg Example 7 s.c., initial study (7.5 Gy schedule), read-out: Plasma levels of Example 6 at Cmax associated with efficacy", "value": 23, "unit": "µM"}]}, {"compound": "COc1cccc2[nH]c3c4c(c5c(c3c12)C(=O)N(CN1CCN(C)CC1)C5=O)CCC4", "note": "[Example 7, 7-Methoxy-5-(4-methyl-piperazin-1-ylmethyl)-1,2,3,11-tetrahydro-5,11-diaza-benzo[a]trindene-4,6-dione]", "values": [{"measurement": "IC50", "setting": "[1]", "value": "< 100", "unit": "nM"}, {"measurement": "tumor growth delay (TGD)", "setting": "[3]; Example 7 (100 mg/kg s.c. qd) with 7.5 Gy radiation for 3 days, vs vehicle", "value": 14.8, "unit": "days"}, {"measurement": "time for tumors to reach 2000 mm3", "setting": "[3]; Example 7 (100 mg/kg s.c. qd) with 7.5 Gy radiation for 3 days, radiation alone 16.1 days", "value": 24.8, "unit": "days"}, {"measurement": "effect on tumor growth as a single agent", "setting": "[3]; Example 7 alone, 100 mg/kg dose equivalents of Example 6, s.c., QD for 5 days", "value": "no effect on tumor growth"}, {"measurement": "time for tumors to reach a tumor volume of 2000 mm3", "setting": "[3]; Example 7 only, 100 mg/kg dose equivalents of Example 6, s.c., QD 5 days, vehicle 10.0 days", "value": 9.6, "unit": "days"}, {"measurement": "TGD compared to radiation alone", "setting": "[4]; Example 7 30 mg/kg s.c. qd x 21 d in combination with RT 2 Gy x 5 days", "value": 15, "unit": "days"}, {"measurement": "TGD compared to Example 7 alone", "setting": "[4]; [7]", "value": 26, "unit": "days"}, {"measurement": "fold increase in TGD compared to Example 7 alone", "setting": "[4]; [7]", "value": 6, "unit": "fold"}, {"measurement": "fold increase in TGD compared to radiation alone", "setting": "[4]; [7]", "value": 4, "unit": "fold"}, {"measurement": "anti-tumor efficacy", "setting": "[4]; Example 7 100 mg/kg s.c. with fractionated radiotherapy 2 Gy x 5 days", "value": "significant anti-tumor efficacy"}, {"measurement": "mortality", "setting": "[4]; Example 7 100 mg/kg s.c. with fractionated radiotherapy, by day 11", "value": 80, "unit": "%"}, {"measurement": "effect on tumor growth inhibition, Example 7 alone", "setting": "[4]; Example 7 alone, 30 mg/kg dose equivalents of Example 6 s.c. qd x 21 days", "value": "no effect on tumor growth inhibition"}, {"measurement": "potentiation of radiation-induced normal tissue toxicity", "setting": "[5]", "value": "did not potentiate radiation toxicity"}, {"measurement": "effect on tumor growth", "setting": "[6]; Example 7 200 mg/kg dose equivalents of Example 6 p.o. qd x 21 d plus RT 2 Gy x 5 d", "value": "no effect on tumor growth as compared to RT alone"}, {"measurement": "effect on tumor growth", "setting": "[6]; Example 7 300 mg/kg dose equivalents of Example 6 p.o. qd x 21 d plus RT 2 Gy x 5 d", "value": "tumor growth stasis starting on day 8 and continuing throughout the study (day 31)"}, {"measurement": "effect on tumor growth", "setting": "[6]; Example 7 alone, 200 and 300 mg/kg dose equivalents of Example 6 p.o. qd x 21 d", "value": "no effect on tumor growth as compared to RT alone"}, {"measurement": "radio-sensitizing effect when administered orally", "setting": "[6]; oral administration", "value": "exerts radio-sensitizing effects when administered orally"}]}, {"compound": "COc1cccc2c1c1c3c(c4c(c1n2CN1CCOCC1)CCC4)C(=O)N(CN1CCOCC1)C3=O", "note": "[Example 9, 7-Methoxy-5,11-(bis-morpholin-4-ylmethyl)-1,2,3,11-tetrahydro-5,11-diaza-benzo[a]trindene-4,6-dione]", "values": [{"measurement": "IC50", "setting": "[1]", "value": "< 100", "unit": "nM"}]}, {"compound": "COc1cccc2[nH]c3c4c(c5c(c3c12)C(=O)N(CN1CCOCC1)C5=O)CCC4", "note": "[Example 10, 7-Methoxy-5-(morpholin-4-ylmethyl)-1,2,3,11-tetrahydro-5,11-diaza-benzo[a]trindene-4,6-dione]", "values": [{"measurement": "IC50", "setting": "[1]", "value": "< 100", "unit": "nM"}]}]}
